Measurements: the supplement of paper PMC10307832

Key:
Assay in all cases: relative viability (nuclei count vs DMSO), 5 days (fraction); higher = more cells survive
RO-3306 + Trametinib = compound: C1=CC2=C(C=CC(=C2)C=C3C(=O)NC(=NCC4=CC=CS4)S3)N=C1 [RO-3306] + CC(=O)Nc1cccc(-n2c(=O)n(C3CC3)c(=O)c3c(Nc4ccc(I)cc4F)n(C)c(=O)c(C)c32)c1 [Trametinib] (partner 0.02 µM)
How it was run: (§1)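 Each reported value is a median over duplicate plates. It expresses relative viability: treated-well nuclei count divided by vehicle-well nuclei count. Lung cancer cell lines in 1536-well plates were dosed by pin tool a day after seeding, alone with one drug or with a fixed anchor-drug dose plus five library-drug doses (not always all listed) in √10 steps, and nuclei were counted after 5 days.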

RO-3306 + Crizotinib = compound: C1=CC2=C(C=CC(=C2)C=C3C(=O)NC(=NCC4=CC=CS4)S3)N=C1 [RO-3306] + C[C@@H](Oc1cc(-c2cnn(C3CCNCC3)c2)cnc1N)c1c(Cl)ccc(F)c1Cl [Crizotinib] (partner 1 µM)
How it was run: as §1

RO-3306 + AZD7762 = compound: C1=CC2=C(C=CC(=C2)C=C3C(=O)NC(=NCC4=CC=CS4)S3)N=C1 [RO-3306] + NC(=O)Nc1cc(-c2cccc(F)c2)sc1C(=O)N[C@H]1CCCNC1 [AZD7762] (partner 0.2 µM)
How it was run: as §1

[1] = compound: O=S(=O)(c1ccccc1)N(CC(F)(F)F)c1ccc(C(O)(C(F)(F)F)C(F)(F)F)cc1 + Cc1cc(Nc2cc(N3CCN(C)CC3)nc(Sc3ccc(NC(=O)C4CC4)cc3)n2)n[nH]1 [Tozasertib] (partner 0.1 µM)
How it was run: as §1

Row | Cell Line | relative viability (RO-3306 + Trametinib; first compound 0.01 µM) | relative viability (RO-3306 + Trametinib; first compound 0.03162 µM) | relative viability (RO-3306 + Trametinib; first compound 0.1 µM) | relative viability (RO-3306 + Trametinib; first compound 0.3162 µM) | relative viability (RO-3306 + Trametinib; first compound 1 µM) | relative viability (RO-3306 + Crizotinib; first compound 0.01 µM) | relative viability (RO-3306 + Crizotinib; first compound 0.03162 µM) | relative viability (RO-3306 + Crizotinib; first compound 0.1 µM) | relative viability (RO-3306 + Crizotinib; first compound 0.3162 µM) | relative viability (RO-3306 + Crizotinib; first compound 1 µM) | relative viability (RO-3306 + AZD7762; first compound 0.01 µM) | relative viability (RO-3306 + AZD7762; first compound 0.03162 µM) | relative viability (RO-3306 + AZD7762; first compound 0.1 µM) | relative viability (RO-3306 + AZD7762; first compound 0.3162 µM) | relative viability (RO-3306 + AZD7762; first compound 1 µM) | relative viability ([1]; first compound 0.8 µM) | relative viability ([1]; first compound 2.53 µM) | relative viability ([1]; first compound 8 µM)
1 | EKVX | 0.328 | 0.298 | 0.362 | 0.328 | 0.324 | 1.05 | 0.859 | 1.03 | 1.04 | 0.894 | 0.727 | 0.538 | 0.677 | 0.692 | 0.603 | 0.405 | 0.344 | 0.325
2 | PC-14 | 0.827 | 0.607 | 0.614 | 0.78 | 0.766 | 0.977 | 0.841 | 1.03 | 0.864 | 0.836 | 0.28 | 0.32 | 0.285 | 0.426 | 0.251 | 0.559 | 0.445 | 0.34
3 | LK-2 | 1.01 | 0.659 | 0.692 | 0.872 | 0.872 | 0.232 | 0.239 | 0.216 | 0.201 | 0.234 | 0.459 | 0.354 | 0.425 | 0.448 | 0.472 | 0.174 | 0.188 | 0.189
4 | LCLC-97TM1 | 0.214 | 0.186 | 0.191 | 0.204 | 0.165 |  | 0.379 | 0.313 | 0.338 | 0.31 | 0.258 |  | 0.197 | 0.31 | 0.26 | 0.218 | 0.21 | 0.156
5 | NCI-H2405 | 0.637 | 0.557 | 0.636 | 0.63 | 0.613 | 0.863 | 0.786 | 0.864 | 0.828 | 0.794 | 0.828 | 0.608 | 0.717 | 0.718 | 0.578 | 0.889 | 0.749 | 0.711
6 | NCI-H596 | 0.798 | 0.773 | 0.722 | 0.793 | 0.58 | 0.968 | 0.896 | 0.998 | 1.07 | 1.08 | 1.17 | 1.01 | 1.03 | 1.1 | 0.917 | 0.907 | 0.761 | 0.75
7 | EPLC-272H | 0.272 |  | 0.293 | 0.284 | 0.271 | 0.948 | 0.841 | 0.904 | 1.03 | 0.532 | 0.152 |  | 0.138 | 0.188 | 0.199 | 0.366 | 0.379 | 0.312
8 | RERF-LC-KJ | 0.914 | 0.907 | 0.862 | 0.881 | 0.935 | 0.848 | 1.03 | 0.797 | 0.848 | 0.95 | 1.02 | 0.671 | 1.06 | 1.11 | 1.24 | 0.5 | 0.445 | 0.523
9 | HARA | 0.448 |  | 0.519 | 0.694 | 0.741 | 1.05 | 0.916 | 1.04 | 1.27 | 1.01 | 0.443 |  | 0.237 | 0.297 | 0.421 | 0.0946 | 0.0891 | 0.102
10 | NCI-H838 | 0.596 | 0.487 | 0.54 | 0.557 | 0.45 | 0.957 | 0.765 | 0.837 | 0.93 | 0.607 | 1.03 | 0.908 | 0.975 | 0.972 | 0.931 | 0.278 | 0.268 | 0.25
11 | NCI-H727 | 0.39 | 0.388 | 0.355 | 0.352 | 0.409 | 1.33 | 0.781 | 0.837 | 1 | 0.964 | 0.488 | 0.681 | 0.558 | 0.567 | 0.739 | 0.605 | 0.572 | 0.674
12 | BEN | 1 | 0.895 | 1.02 | 1.13 | 1.13 | 0.834 | 0.768 | 0.86 | 0.906 | 0.813 | 0.558 | 0.676 | 0.649 | 0.742 | 0.768 | 0.615 | 0.549 | 0.508
13 | NCI-H1437 | 0.539 | 0.409 | 0.54 | 0.543 | 0.527 | 1.13 | 0.682 | 0.988 | 1.01 | 1.03 | 1.2 | 1.08 | 1.11 | 1.15 | 0.882 | 0.411 | 0.337 | 0.275
14 | NCI-H1915 | 0.319 | 0.276 | 0.297 | 0.32 | 0.292 | 1.07 | 0.783 | 0.882 | 0.903 | 0.876 | 0.749 | 0.679 | 0.727 | 0.698 | 0.685 | 0.458 | 0.454 | 0.468
15 | LU99A | 0.638 | 0.522 | 0.556 | 0.554 | 0.575 | 0.644 | 0.556 | 0.576 | 0.579 | 0.568 | 0.394 | 0.325 | 0.483 | 0.319 | 0.338 | 0.235 | 0.238 | 0.253
16 | NCI-H1975 | 0.348 | 0.319 | 0.309 | 0.33 | 0.331 | 1.18 | 0.815 | 1.06 | 1.04 | 0.997 | 0.762 | 0.671 | 0.712 | 0.641 | 0.653 | 0.781 | 0.622 | 0.659
17 | LCLC-103H | 0.728 | 0.665 | 0.739 | 0.634 | 0.689 | 1.1 | 1.01 | 1.01 | 1.05 | 0.951 | 0.732 | 0.695 | 0.795 | 0.819 | 0.725 | 0.541 | 0.447 | 0.349
18 | NCI-H3122 | 0.241 | 0.223 | 0.26 | 0.237 | 0.227 | 0.253 | 0.262 | 0.244 | 0.244 | 0.283 | 1.16 | 1.06 | 0.973 | 1.06 | 1.1 | 0.419 | 0.424 | 0.489
19 | CAL-12T | 0.374 | 0.302 | 0.309 | 0.245 | 0.324 | 0.57 | 0.49 | 0.531 | 0.63 | 0.508 | 0.718 | 0.565 | 0.575 | 0.658 | 0.747 | 0.299 | 0.331 | 0.242
20 | NCI-H1355 | 0.472 | 0.324 | 0.404 | 0.448 | 0.376 | 1.21 | 0.947 | 1.1 | 1.12 | 1.14 | 0.792 | 0.762 | 0.677 | 0.694 | 0.863 | 0.555 | 0.5 | 0.518
21 | NCI-H650 | 0.981 | 0.939 | 0.921 | 1.1 | 0.941 | 0.56 | 0.648 | 0.694 | 0.691 | 0.703 | 0.874 | 0.911 | 0.943 | 1.05 | 0.952 | 0.778 | 0.771 | 0.748
22 | NCI-H322M | 0.561 | 0.445 | 0.515 | 0.54 | 0.531 | 0.861 | 0.999 | 1.1 | 0.95 | 0.953 | 0.538 | 0.697 | 0.625 | 0.597 | 0.582 | 0.562 | 0.575 | 0.467
23 | HCC-44 | 1.06 | 0.933 | 1.15 | 1.13 | 1.08 | 0.825 | 0.83 | 0.881 | 0.835 | 0.818 | 1.04 | 1.1 | 1.01 | 1 | 1.01 |  | 0.862 | 0.894
24 | PC-3 [JPC-3] | 0.715 | 0.697 | 0.704 | 0.694 | 0.65 | 1.03 | 0.971 | 0.965 | 1.03 | 0.951 | 0.688 | 0.673 | 0.769 | 0.687 | 0.681 | 0.819 | 0.838 | 0.767
25 | NCI-H1944 | 0.387 | 0.403 | 0.428 | 0.445 | 0.41 | 1.11 | 0.98 | 1.16 | 1.21 | 1.03 | 0.606 | 0.571 | 0.508 | 0.45 | 0.46 | 0.263 | 0.263 | 0.234
26 | HCC-827 | 0.544 | 0.476 | 0.516 | 0.571 | 0.462 | 0.95 | 0.866 | 0.943 | 0.903 | 0.972 | 0.234 | 0.18 | 0.216 | 0.197 | 0.196 | 0.419 | 0.414 | 0.406
27 | NCI-H1666 | 0.792 | 0.665 | 0.835 | 0.765 | 0.783 | 1.04 | 0.869 | 0.915 | 0.839 | 0.89 | 0.787 | 0.878 | 0.858 | 0.88 | 0.799 | 0.627 | 0.62 | 0.545
28 | NCI-H2126 | 0.555 | 0.488 | 0.577 | 0.584 | 0.476 | 1.08 | 1.01 | 1.08 | 1.06 | 1.04 | 1.01 | 0.976 | 1.02 | 0.993 | 1.13 | 0.934 | 0.887 | 0.769
29 | LXF-289 | 0.741 | 0.63 | 0.647 | 0.673 | 0.695 | 0.846 | 0.817 | 0.808 | 0.726 | 0.76 | 1.08 | 0.993 | 1.17 | 0.973 | 1.22 | 0.213 | 0.203 | 0.153
30 | NCI-H358 | 0.131 | 0.131 | 0.127 | 0.135 | 0.12 | 0.612 | 0.618 | 0.439 | 0.446 | 0.375 | 0.486 | 0.493 | 0.49 | 0.52 | 0.578 | 0.107 | 0.0905 | 0.0846
